Series [1] in a line: Stability of viprostol compositions on storage in glass (ampules). It counts as physicochemical.
Another series deals with male pattern baldness. In words: Clinical study of hair growth after once-daily topical application to the scalp, hair counts. The class given is in vivo, healthy, male volunteers. Conditions: topical application of small amounts; mean hair counts over a six-month period (Figs. 1-5) and three-month chart. As to the method: Clinical studies using healthy, male volunteers (age 18-65) with vertex baldness and some recession of front hairline were performed using viprostol in Formulation A, above-described. The volunteers were not hypertensive. […] The hairs on such location were counted at the beginning of the study, and recounts were done periodically during the course of the study. All hair, including unpigmented vellus and pigmented intermediate and terminal hair was, counted, except as indicated hereinbelow. The amount of viprostol applied was approximately 120 mcg, which amount was applied once daily to the bald and balding areas of the scalp. The viprostol was contained in the above-described Formulation A. Approximately 0.3 ml of such formulation was topically to the scalp with an index finger and rubbing action. The scalp was clean (recently shampooed) and dry at application. The chart below summarizes the results after three months of study.
Additionally, as the study proceeded beyond three months, the results wre charted as mean hair counts over time.

Like-named read-outs stand apart in the source and are kept apart here.

Regarding `C=CC(O)(CC=CC1C(O)CC(=O)C1CC=CCCCC(=O)OC)CCCC` (racemic) [viprostol, Methyl (±)-[11α,5Z(5E), 13E, 16R and 16S]-16 ethenyl-11,16-dihydroxy-9-oxoprosta-5,13-dien-1-oate], the “Stability of Viprostol Compositions (% of Initial Potency)” value in series [1] (Initial) was 100%. Besides, the remaining at 1440 h in series [1] (neat bulk liquid, 23°C 2 months, read-out: Stability of Viprostol Compositions (% of Initial Potency)) came out at 99%; in series [1] (neat bulk liquid, 42°C 2 months, read-out: Stability of Viprostol Compositions (% of Initial Potency)), 83%; in series [1] (neat bulk liquid, 56°C 2 months, read-out: Stability of Viprostol Compositions (% of Initial Potency)) it was 0%. Also, the remaining at 4320 h in series [1] (neat bulk liquid, 23°C 6 months, read-out: Stability of Viprostol Compositions (% of Initial Potency)) stood at 87%. The remaining at 8760 h in series [1] (neat bulk liquid, 23°C 12 months, read-out: Stability of Viprostol Compositions (% of Initial Potency)) turned out to be 20%. Also, the remaining at 13152 h in series [1] (neat bulk liquid, 23°C 18 months, read-out: Stability of Viprostol Compositions (% of Initial Potency)) stood at 12%. In series [1] (neat bulk liquid, 56°C 1 month, read-out: Stability of Viprostol Compositions (% of Initial Potency)), the remaining at 720 h was 32%. In addition, the hair growth result in the series with male pattern baldness is on record as “caused hair growth”.

(Values after EP0249194A2, “Topical prostaglandin formulations” (AMERICAN CYANAMID COMPANY, priority 1986, dated 1987).)
